Assay results: ChEMBL document CHEMBL1201862, “PubChem BioAssay data set” (2004)
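Following 48 hours of exposure in 96-well plates, responses at five concentrations were used to interpolate endpoints linearly. GI50 = concentration required for 50% inhibition of growth.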 Activity calls are given as the source filed them. No stated cut-off is given here; in the data, active = GI50 up to about 1.1 µM and inactive = higher.

Legend:
Assay in all cases: NCI-60 cell line screen, 48 h
NCI-H226 = test system: NCI-H226
Malme-3M = test system: Malme-3M
DU-145 = test system: DU-145
HCT-15 = test system: HCT-15
MDA-N = test system: MDA-N
RXF 393 = test system: RXF 393
CAKI-1 = test system: CAKI-1
HCC 2998 = test system: HCC 2998
SR = test system: SR
SK-MEL-2 = test system: SK-MEL-2
786-0 = test system: 786-0
SNB-75 = test system: SNB-75
SK-MEL-5 = test system: SK-MEL-5
UACC-62 = test system: UACC-62
SK-OV-3 = test system: SK-OV-3
KM12 = test system: KM12
HOP-92 = test system: HOP-92
MDA-MB-435 = test system: MDA-MB-435
NCI/ADR-RES = test system: NCI/ADR-RES
SK-MEL-28 = test system: SK-MEL-28

Structure (SMILES)	GI50 (NCI-H226)	GI50 (Malme-3M)	GI50 (DU-145)	GI50 (HCT-15) [µM]	GI50 (MDA-N)	GI50 (RXF 393)	GI50 (CAKI-1)	GI50 (HCC 2998)	GI50 (SR)	GI50 (SK-MEL-2)	GI50 (786-0)	GI50 (SNB-75)	GI50 (SK-MEL-5)	GI50 (UACC-62)	GI50 (SK-OV-3)	GI50 (KM12)	GI50 (HOP-92)	GI50 (MDA-MB-435)	GI50 (NCI/ADR-RES)	GI50 (SK-MEL-28)
COC(=O)c1ccc(NCC2=CC(=O)c3ccccc3C2=O)cc1	16.4 µM (inactive)	5.81 µM (inactive)	16.5 µM (inactive)	14.5	9.23 µM (inactive)	22 µM (inactive)	11.6 µM (inactive)	19.4 µM (inactive)	14.6 µM (inactive)	18.9 µM (inactive)	19.3 µM (inactive)	20.7 µM (inactive)	11.7 µM (inactive)	13.6 µM (inactive)	16.1 µM (inactive)	15.4 µM (inactive)	2.77 µM (inactive)	12.2 µM (inactive)	27.5 µM (inactive)	17.5 µM (inactive)
CC(=O)Nc1n[n+]([O-])c2cc(C)ccc2[n+]1[O-]	4.32 µM (inactive)	3.18 µM (inactive)	4.71 µM (inactive)	1.7	3.56 µM (inactive)	5.75 µM (inactive)	2.52 µM (inactive)	3.84 µM (inactive)	2.56 µM (inactive)	3.81 µM (inactive)	3.26 µM (inactive)	2.88 µM (inactive)	1.51 µM (inactive)	1.78 µM (inactive)	5.86 µM (inactive)	3.68 µM (inactive)	1.01 µM (active)	4.72 µM (inactive)	5.79 µM (inactive)	17 µM (inactive)
COC(=O)[C@H]1[C@@H](O)[C@@]2(O)c3c(OC)cc(OC)cc3O[C@@]2(c2ccc3c(c2)OCO3)[C@@H]1c1ccccc1	0.0136 µM (active)	0.0168 µM (active)	0.00873 µM (active)	< 0.005	0.00513 µM (active)	0.0647 µM (active)	0.00893 µM (active)	0.00838 µM (active)	< 0.005 µM (active)	0.0207 µM (active)	0.00625 µM (active)	0.0146 µM (active)	0.00757 µM (active)	0.0222 µM (active)	0.00539 µM (active)	< 0.005 µM (active)	0.0408 µM (active)	0.00603 µM (active)	0.00893 µM (active)	0.00815 µM (active)
CCC(NC1=NCCO1)c1cccs1 (stereo not given)	20.3 µM (inactive)	13 µM (inactive)	13.7 µM (inactive)	15.6	14.6 µM (inactive)	19 µM (inactive)	17.2 µM (inactive)	15.5 µM (inactive)	25.8 µM (inactive)	15.5 µM (inactive)	15.3 µM (inactive)	3.24 µM (inactive)	16.8 µM (inactive)	16 µM (inactive)	13.8 µM (inactive)	18 µM (inactive)	17.4 µM (inactive)	14.5 µM (inactive)	43.1 µM (inactive)	15.6 µM (inactive)
COc1cc2c3cc1Oc1c(O)c(OC)cc4c1[C@H](Cc1ccc(cc1)Oc1cc(ccc1O)C[C@H]3N(C)CC2)N(C)CC4	29.4 µM (inactive)	17.3 µM (inactive)	15.1 µM (inactive)	9.29	10.7 µM (inactive)	3.63 µM (inactive)	25.9 µM (inactive)	7.05 µM (inactive)	1.63 µM (inactive)	12.3 µM (inactive)	6.52 µM (inactive)	18.8 µM (inactive)	7.33 µM (inactive)	17.4 µM (inactive)	25.4 µM (inactive)	9.02 µM (inactive)	6.64 µM (inactive)	10.7 µM (inactive)	24.5 µM (inactive)	19.2 µM (inactive)
CC1(C)CC[C@]2(C(=O)O)[C@H](O)C[C@]3(C)C(=CC[C@@H]4[C@@]5(C)CC[C@H](OC6OC(C(=O)O)C(O)C(O)C6O)C(C)(C)[C@@H]5CC[C@]43C)[C@@H]2C1 (stereo not given in full)	> 100 µM (inactive)	> 100 µM (inactive)	96.4 µM (inactive)	58.2	> 100 µM (inactive)	26.1 µM (inactive)	> 100 µM (inactive)	27.2 µM (inactive)	21.3 µM (inactive)	> 100 µM (inactive)	> 100 µM (inactive)	46.7 µM (inactive)	> 100 µM (inactive)	23.6 µM (inactive)	> 100 µM (inactive)	56.2 µM (inactive)	20.3 µM (inactive)	> 100 µM (inactive)	> 100 µM (inactive)	18.3 µM (inactive)
COC(=O)C(CNC(=O)/C=C/c1ccc(OC)c(OC)c1)NC(=O)/C=C/c1ccc(OC)c(OC)c1 (stereo not given)	> 100 µM (inactive)	92.3 µM (inactive)	> 100 µM (inactive)	> 100	> 100 µM (inactive)	> 100 µM (inactive)	> 100 µM (inactive)	50 µM (inactive)	> 100 µM (inactive)	> 100 µM (inactive)	> 100 µM (inactive)	90.6 µM (inactive)	> 100 µM (inactive)	> 100 µM (inactive)	> 100 µM (inactive)	> 100 µM (inactive)	> 100 µM (inactive)	> 100 µM (inactive)	> 100 µM (inactive)	67.3 µM (inactive)
Cc1ccc(NC(Nc2ccc(C)cc2C)=C(/C=C(\Cl)[N+](=O)[O-])[N+](=O)[O-])c(C)c1	7 µM (inactive)	3.09 µM (inactive)	18.5 µM (inactive)	2.92	3.37 µM (inactive)	1.72 µM (inactive)	2.08 µM (inactive)	23.3 µM (inactive)	1.28 µM (inactive)	4.23 µM (inactive)	2.81 µM (inactive)	1.11 µM (active)	5.9 µM (inactive)	3.3 µM (inactive)	5.18 µM (inactive)	10.4 µM (inactive)	1.45 µM (inactive)	2.87 µM (inactive)	17.1 µM (inactive)	2.34 µM (inactive)
CCN(CC)c1ccc2cc(C(=O)Nc3ccccn3)c(=N)oc2c1	> 100 µM (inactive)	60.3 µM (inactive)	> 100 µM (inactive)	> 100	> 100 µM (inactive)	47.9 µM (inactive)	> 100 µM (inactive)	> 100 µM (inactive)	> 100 µM (inactive)	25.5 µM (inactive)	35.3 µM (inactive)	28.5 µM (inactive)	> 100 µM (inactive)	30.3 µM (inactive)	52 µM (inactive)	> 100 µM (inactive)	> 100 µM (inactive)	> 100 µM (inactive)	85.3 µM (inactive)	> 100 µM (inactive)
COC(=O)n1c(=O)nc2c3c(ncn21)Oc1c(c(-c2ccccc2)nn1-c1ccccc1)C3c1ccc(Cl)cc1 (stereo not given)	1.58 µM (inactive)	1.04 µM (active)	1.63 µM (inactive)	1.6	1.66 µM (inactive)	1.63 µM (inactive)	1.63 µM (inactive)	1.42 µM (inactive)	1.82 µM (inactive)	1.7 µM (inactive)	1.49 µM (inactive)	2 µM (inactive)	1.77 µM (inactive)	1.95 µM (inactive)	3.29 µM (inactive)	1.37 µM (inactive)	1.71 µM (inactive)	1.66 µM (inactive)	1.46 µM (inactive)	1.79 µM (inactive)
COc1ccc2c(c1)/c(=C/C#N)c1c3ccccc3[n+](C)n21	4.29 µM (inactive)	5.21 µM (inactive)	1.71 µM (inactive)	20.1	5.43 µM (inactive)	10.9 µM (inactive)	16.1 µM (inactive)	1.44 µM (inactive)	6.34 µM (inactive)	14.5 µM (inactive)	3.95 µM (inactive)	3.7 µM (inactive)	6.62 µM (inactive)	13.6 µM (inactive)	15.5 µM (inactive)	6.04 µM (inactive)	1.16 µM (inactive)	6.87 µM (inactive)	18.4 µM (inactive)	5.58 µM (inactive)
Clc1nc2c(-c3cccs3)ncnc2n1Cc1ccccc1	15.8 µM (inactive)	36.5 µM (inactive)	2.49 µM (inactive)	32.1	42.6 µM (inactive)	17 µM (inactive)	3.08 µM (inactive)	3.21 µM (inactive)	6.97 µM (inactive)	63.2 µM (inactive)	19.5 µM (inactive)	21.3 µM (inactive)	24.9 µM (inactive)	72.3 µM (inactive)	38.9 µM (inactive)	15.9 µM (inactive)	9.44 µM (inactive)	49.2 µM (inactive)	46.3 µM (inactive)	61.5 µM (inactive)
O=C1NC(O)c2ccccc2O1 (stereo not given)	> 100 µM (inactive)	> 100 µM (inactive)	> 100 µM (inactive)	> 100	> 100 µM (inactive)	> 100 µM (inactive)	> 100 µM (inactive)	> 100 µM (inactive)	> 100 µM (inactive)	> 100 µM (inactive)	> 100 µM (inactive)	> 100 µM (inactive)	> 100 µM (inactive)	> 100 µM (inactive)	> 100 µM (inactive)	> 100 µM (inactive)	> 100 µM (inactive)	> 100 µM (inactive)	> 100 µM (inactive)	> 100 µM (inactive)
OCC(O)C(O)C(O)C1SC(c2ccccc2)=NN1c1ccccc1 (stereo not given)	> 76 µM (inactive)	> 82 µM (inactive)	> 61 µM (inactive)	> 100	> 82.4 µM (inactive)	20.4 µM (inactive)	> 100 µM (inactive)	> 100 µM (inactive)	> 81.3 µM (inactive)	41.7 µM (inactive)	37 µM (inactive)	16 µM (inactive)	> 78.5 µM (inactive)	47 µM (inactive)	36.9 µM (inactive)	> 100 µM (inactive)	27 µM (inactive)	97.9 µM (inactive)	> 70.1 µM (inactive)	> 81.5 µM (inactive)
